Laboratory results published in patent publication US7083798B1, “Method of immunomodulatory treatment of insulin dependent diabetes mellitus using mycobacterial cell wall compositions” (Centenary Institute of Cancer Medicine and Cell Biology, priority 1996, dated 2006).

Tested on: mice
Assay: Maximum dose tolerated by mice
Procedure: GMDP (10, 5.0, 2.5 and 1.0 μg), ManLAM (50, 25, 12.5 and 6.25 μg), and MAPG (1.0, 0.5, 0.25 and 0.125 mg) were each suspended in saline and injected intravenously into eight week old female NOD mice. […] Groups of 5 mice were tested and the incidence of diabetes compared to 17 saline treated and 14 BCG treated control mice.

CC(=O)N[C@H]1[C@H](O[C@H]2[C@H](O[C@H](C)C(=O)N[C@@H](C)C(=O)N[C@H](CCC(=O)O)C(N)=O)[C@@H](NC(C)=O)C(O)O[C@@H]2CO)O[C@H](CO)[C@@H](O)[C@@H]1O (stereo partly drawn) [GMDP, N-acetylglucosaminyl-N-acetylmuramyl-L-alanyl-D-isoglutamine]
maximum dose tolerated by mice: 10 µL·g
